“And” between values parts separate entries of the source, which are not always exact repeats. Equal entries are not always repeated.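 Method: 48-hour compound exposure of cells in 96-well plates, five concentrations, linear interpolation of endpoints. GI50 is the concentration that inhibits growth by half. TGI: concentration producing complete growth inhibition.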
Experiments:
Assay in all cases: inhibition of tumour cell growth, NCI panel, 48 h
[1] = tested on: RPMI-8226 leukemia
[2] = tested on: CAKI-1 renal
[3] = tested on: SK-MEL-28 melanoma
[4] = tested on: UACC-62 melanoma
[5] = tested on: SK-OV-3 ovarian
[6] = tested on: HCT-15 colon
[7] = tested on: SF-268 CNS
[8] = tested on: U251 CNS
[9] = tested on: HL-60(TB) leukemia
[10] = tested on: 786-0 renal

Row | SMILES | TGI [1] [µM] | TGI [2] [µM] | TGI [3] [µM] | TGI [4] | TGI [5] [µM] | TGI [6] [µM] | TGI [7] [µM] | TGI [8] [µM] | TGI [9] | TGI [10] [µM] | GI50 [4] [µM] | GI50 [8] [µM] | GI50 [9] [µM]
1 | O=C(O)c1nc(-c2ccccc2)[nH]c1C(=O)O | 4.14 | 27.5 | 30.2 | 32.4 µM | 32.4 | 38.8 | 34.8 | 8.33 | 0.49 µM | 22.5 |  |  | 
2 | CCCCCCCCCCCCCCCCCCNc1ccn(C2OC(COP(=O)(O)OCC3OC(n4cc(F)c(NCCCCCCCCCCCCCCCCCC)nc4=O)CC3O)C(O)C2O)c(=O)n1 (stereo not drawn) | > 100 | > 100 | > 100 | > 100 µM | > 100 | > 100 | > 100 | > 100 | > 100 µM | > 100 |  |  | 
3 | COC(=O)[C@H]1CO[C@H]2C/C(C)=C/CC/C(C)=C/CC[C@@]3(C)O[C@@H]3C[C@H]21 | > 50 | > 50 | 34.9 | 18.2 µM | > 50 | 19.9 | > 50 | > 50 | 26.2 µM | > 50 |  |  | 
4 | CCNC(=O)c1cc(/C=C/c2ccc([N+](=O)[O-])o2)nc2ccccc12 | > 100 | > 100 | 71.4 | > 100 µM | > 100 | > 100 | > 100 | > 100 | > 100 µM | > 100 |  |  | 
5 | C=C(CO[Si](C)(C)C(C)(C)C)C(C)=O | > 77.8 | 46.9 | 34.6 | 30.5 µM | > 100 | 77.6 | > 74.6 | > 100 | > 100 µM | 34.3 |  |  | 
6 | C=C(C)C(O)C(O)c1c(OC)ccc2ccc(=O)oc12 (stereo not drawn) | > 100 | > 100 | > 100 | > 100 µM | > 100 | > 100 | > 100 | > 100 | > 100 µM | > 100 |  |  | 
7 | Cc1c2c(n(CCc3ccc(Cl)cc3)c1C)NC(c1ccccc1)C(C#N)S2(=O)=O (stereo not drawn) | 57.8 | > 100 | > 100 | > 100 µM | > 100 | > 100 | > 100 | > 100 | > 100 µM | > 100 |  |  | 
8 | Oc1c([Si](c2ccccc2)(c2ccccc2)c2ccccc2)cc2ccccc2c1-c1c(O)c([Si](c2ccccc2)(c2ccccc2)c2ccccc2)cc2ccccc12 | > 100 | > 100 | > 100 | > 100 µM | > 100 | > 100 | > 100 | > 100 | > 100 µM | > 100 |  |  | 
9 | COc1ccc(-n2c(=O)n(C)c(=O)n2-c2ccc(OC)cc2)cc1 | > 100 | > 100 | > 100 | > 100 µM | > 100 | > 100 | > 100 | > 100 | > 100 µM | > 100 |  |  | 
10 | CCOC(=O)c1cc2c3c(c(C(C)=O)c(O)c2[nH]1)N(CC(C)CC)CC3 (stereo not drawn) | > 100 | > 100 | > 100 | > 100 µM | > 100 | > 100 | > 100 | > 100 | > 100 µM | > 100 |  |  | 
11 | CCCC(=O)NC(Nc1ccc(S(=O)(=O)Nc2nc(C)cc(C)n2)cc1)(C(F)(F)F)C(F)(F)F | > 100 | > 100 | > 100 | > 100 µM | > 100 | > 100 | > 100 | > 100 | > 100 µM | > 100 |  |  | 
12 | COC(=O)c1cc2ccc(OC(C)=O)c(OC(C)=O)c2cn1 | 4.91 | 35.9 | 34.3 | 5.8 µM and 35.1 µM | 52.4 | 39 | 53 | 28.2 | 8.21 µM and 3.8 µM | 33 | 16.3 | 12.7 | 1.63
13 | CC1=NN(c2nc(N)nc(/C(C#N)=C/c3cccn3-c3cc(Cl)cc(Cl)c3)n2)C(C)(C)C1 | > 100 | > 100 | > 100 | > 100 µM | > 100 | > 100 | > 100 | 28.3 | > 100 µM | > 100 |  |  | 
14 | CN(C)c1nc2oc(-c3ccccc3)c(-c3ccccc3)c2c2nnnn12 | > 100 | > 100 | > 100 | > 100 µM | > 100 | > 100 | > 100 | > 100 | 96.2 µM | > 100 |  |  | 
15 | CC(C)(Oc1ccc(Cl)cc1)C(=O)N(C(=O)N1CCC(c2ccccc2)CC1)c1ccccc1 | > 46.3 | > 100 | > 100 | > 100 µM | > 100 | > 100 | > 100 | > 100 | 29 µM | > 100 |  |  | 
16 | N#Cc1ccccc1-c1nc2c3c(c(N)ccc3n1)C(=O)c1ccccc1-2 | > 100 | 43.6 | > 100 | > 100 µM | > 100 | > 100 | > 100 | > 100 | > 100 µM | > 100 |  |  | 
17 | CC(=O)Nc1ccc(OC2=CCN(C)CC2)cc1 | > 100 | > 100 | > 100 | > 100 µM | > 100 | > 100 | > 100 | > 100 | > 100 µM | > 100 |  |  | 
18 | CN(C(=O)c1ccco1)C(=S)N1CCN(c2ccccc2)CC1 | > 100 | > 100 | > 100 | > 100 µM | > 100 | > 100 | > 100 | > 100 | > 100 µM | > 100 |  |  | 

Source: PubChem BioAssay (NCI)
